Measured values: ChEMBL document CHEMBL1201862, “PubChem BioAssay data set” (2004)
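Each compound was tested at five concentrations against cells in 96-well plates for 48 hours. GI50: concentration for 50% inhibition of growth.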 Active and inactive are the calls of the source. No stated cut-off is given here; in the data, active = GI50 up to about 1.1 µM and inactive = higher.

How the values were obtained:
Experiment in all cases: DTP human tumour cell line panel, 48 h
[1] = system: NCI-H522
[2] = system: IGROV-1
[3] = system: TK-10
[4] = system: SW-620
[5] = system: MDA-MB-435
[6] = system: HOP-92
[7] = system: CCRF-CEM
[8] = system: SK-MEL-5
[9] = system: BT-549
[10] = system: SN12C
[11] = system: SNB-75
[12] = system: 786-0
[13] = system: HCT-116
[14] = system: SK-MEL-2
[15] = system: OVCAR-3
[16] = system: M14
[17] = system: EKVX
[18] = system: MCF7
[19] = system: SF-295

Row | SMILES | GI50 [1] | GI50 [2] | GI50 [3] | GI50 [4] | GI50 [5] | GI50 [6] | GI50 [7] | GI50 [8] | GI50 [9] | GI50 [10] | GI50 [11] | GI50 [12] | GI50 [13] | GI50 [14] | GI50 [15] | GI50 [16] | GI50 [17] | GI50 [18] | GI50 [19]
1 | O=C(NCCCN(CCCCN(CCCNC(=O)c1cc(S(=O)(=O)O)cc(O)c1O)C(=O)c1cc(S(=O)(=O)O)cc(O)c1O)C(=O)c1cc(S(=O)(=O)O)cc(O)c1O)c1cc(S(=O)(=O)O)cc(O)c1O | > 100 µM (inactive) | > 100 µM (inactive) | > 100 µM (inactive) | > 100 µM (inactive) | > 100 µM (inactive) | > 100 µM (inactive) | > 100 µM (inactive) | > 100 µM (inactive) | > 100 µM (inactive) | > 100 µM (inactive) | > 100 µM (inactive) | > 100 µM (inactive) | > 100 µM (inactive) | > 100 µM (inactive) |  |  |  |  | 
2 | O=c1c2ccccc2n2c(-c3ccccc3O)nnc2n1-c1ccccc1 | > 100 µM (inactive) | > 100 µM (inactive) | > 100 µM (inactive) | > 100 µM (inactive) | > 100 µM (inactive) | > 100 µM (inactive) | 67.3 µM (inactive) | > 100 µM (inactive) |  | > 100 µM (inactive) | > 100 µM (inactive) | > 100 µM (inactive) | > 100 µM (inactive) | > 100 µM (inactive) | > 100 µM (inactive) | > 100 µM (inactive) | > 100 µM (inactive) | > 100 µM (inactive) | > 100 µM (inactive)
3 | CCOC(=O)CCC(NC(=O)c1ccc(CNc2nc3ccccc3nc2C(=O)OCC)cc1)C(=O)OCC (configuration not stated) | > 100 µM (inactive) | 43.7 µM (inactive) | > 100 µM (inactive) | > 100 µM (inactive) | 3.01 µM (inactive) | > 100 µM (inactive) | > 100 µM (inactive) | > 100 µM (inactive) |  | > 100 µM (inactive) | > 100 µM (inactive) | > 100 µM (inactive) | > 100 µM (inactive) | > 100 µM (inactive) | 78.7 µM (inactive) | > 100 µM (inactive) | > 100 µM (inactive) | > 100 µM (inactive) | > 100 µM (inactive)
4 | N#CC(C#N)=c1c(=O)c2c3ccccc3cc3cccc1c32 |  | 40.6 µM (inactive) |  | > 100 µM (inactive) | > 100 µM (inactive) | > 100 µM (inactive) | > 100 µM (inactive) | > 100 µM (inactive) | > 100 µM (inactive) | > 100 µM (inactive) | > 100 µM (inactive) | 35.2 µM (inactive) | 72.6 µM (inactive) | 92.3 µM (inactive) | > 100 µM (inactive) | > 100 µM (inactive) |  |  | 
5 | COC(=O)C12C3C4C1C1C2C3C41I (configuration not stated) |  | > 100 µM (inactive) | > 100 µM (inactive) | > 100 µM (inactive) |  | > 100 µM (inactive) | > 100 µM (inactive) | > 100 µM (inactive) |  | > 100 µM (inactive) |  | > 100 µM (inactive) |  |  | > 100 µM (inactive) | > 100 µM (inactive) | > 100 µM (inactive) |  | > 100 µM (inactive)
6 | O=C(ON=C1c2ccccc2C(Br)C(Br)c2ccccc21)c1cc([N+](=O)[O-])cc([N+](=O)[O-])c1 (configuration not stated) | 5.3 µM (inactive) | 2.8 µM (inactive) | 23.2 µM (inactive) | 18.7 µM (inactive) | 18.5 µM (inactive) | 16 µM (inactive) | 0.787 µM (active) | 16.6 µM (inactive) |  | 18.5 µM (inactive) | 13.9 µM (inactive) | 14.9 µM (inactive) | 18.5 µM (inactive) | 31.6 µM (inactive) | 19.9 µM (inactive) | 17.6 µM (inactive) | 25.4 µM (inactive) | 24.7 µM (inactive) | 35 µM (inactive)
7 | C1=C(c2ccccc2)NC2=N[C@H]3CCCC[C@@H]3N2C1c1ccccc1 (some centres not stated) |  | 13 µM (inactive) | 10.4 µM (inactive) | 13.2 µM (inactive) | 13.6 µM (inactive) | 12.7 µM (inactive) | 6.67 µM (inactive) | 14.6 µM (inactive) | 11.4 µM (inactive) |  | 11.3 µM (inactive) | 16.9 µM (inactive) | 7.67 µM (inactive) | 17.8 µM (inactive) | 13.1 µM (inactive) | 12.9 µM (inactive) | 14.4 µM (inactive) |  | 13 µM (inactive)
8 | O=C(CSCC(=O)N/N=C/c1cccc(O)c1)N/N=C/c1cccc(O)c1 | > 100 µM (inactive) | > 100 µM (inactive) | > 100 µM (inactive) | > 100 µM (inactive) | > 100 µM (inactive) | > 100 µM (inactive) |  | > 100 µM (inactive) |  | > 100 µM (inactive) | > 100 µM (inactive) | > 100 µM (inactive) | > 100 µM (inactive) | > 100 µM (inactive) | > 100 µM (inactive) | > 100 µM (inactive) | > 100 µM (inactive) | > 100 µM (inactive) | > 100 µM (inactive)
